We go through 25 compounds from patent publication US20220375563A1, “METHOD AND APPARATUS FOR INDIVIDUALIZED ADMINISTRATION OF MEDICAMENTS FOR ENHANCED SAFE DELIVERY WITHIN A THERAPEUTIC RANGE” (UNIVERSITY OF MARYLAND, BALTIMORE, priority 2019, published 2022).

SMILES strings stand for the structures. Read-outs that look alike come from different tables or passages of the source.

For data set [1] the following is noted: cited from earlier work; for Concentration range: Table 1 anti-epileptics, * uncertain reference range, ** well defined toxic range.
The nature of data set [2]: Therapeutic index (ratio between upper/lower bounds of therapeutic window). The data set is classed as in vivo. Here is the method: In various example embodiments, dosing is determined using some or all the steps of method 300 for medicaments listed in the following tables. For each medicament listed, a concentration window W or therapeutic index is listed in a third column. The therapeutic index (TI, also referred to as therapeutic ratio) is a quantitative measurement of the relative safety of a drug. It is a comparison of the amount of a therapeutic agent that causes the therapeutic effect to the amount that causes toxicity. As proposed herein, a cost function g(y) is based, at least in part, on a value in this third column. The Koopman Expectation is used in Equation 11 or Equation 12 with a quadrature procedure to deduce an optimum range or subset of the dosing range listed in the second column.

For data set [3] the following is noted: Table 1 anti-epileptics; printed in place of a dose range; cited from earlier work.

On to `CCC1(c2ccccc2)C(=O)NC(=O)NC1=O` [Phenobarbital], for which, in data set [1], the Concentration range entry is reported as “(10-40 mg/L)”.
Consider `CCC1(C)CC(=O)NC1=O` (stereo not shown) [Ethosuximide], for which the Concentration range entry in data set [1] is recorded as “(40-100 mg/L)”.
Turning to `NS(=O)(=O)Cc1noc2ccccc12` [Zonisamide], in data set [2] (Table 7 antiepileptics), the Therapeutic index came to 4. Also, the Concentration range entry in data set [1] is reported as “(10-40 mg/L)**”. Besides, the Therapeutic window in data set [1] (Table 7 antiepileptics) is 10 to 40 mg/L.
For `CC1CNc2c(cccc2S(=O)(=O)N[C@@H](CCCNC(=N)N)C(=O)N2CC[C@@H](C)C[C@@H]2C(=O)O)C1` (stereo partly shown) [Argatroban], the Therapeutic index in data set [2] (Table 5 anticoagulants) was 1.7.
Regarding `O=C1NC(=O)C(c2ccccc2)(c2ccccc2)N1` [Phenytoin], the Therapeutic index in data set [2] (Table 7 antiepileptics) is 2. Also, the “Dose range: PK note” value in data set [3] is recorded as “(non-linear PK)”. The Concentration range entry in data set [1] was “(10-20 mg/L)”. In data set [1] (Table 7 antiepileptics), the Therapeutic window was 10 to 20 mg/L.
Consider `Cc1ccsc1C(=CCCN1CCC[C@@H](C(=O)O)C1)c1sccc1C` [Tiagabine], for which the Therapeutic index in data set [2] (Table 7 antiepileptics) stood at 10. Also, the Concentration range entry in data set [1] is listed as “(0.02-0.2 mg/L)*”. For the same compound, in data set [1] (Table 7 antiepileptics), the Therapeutic window is 0.02 to 0.2 mg/L.
For the compound `CCCC(CCC)C(=O)O` [Valproic acid], the Therapeutic index in data set [2] (Table 7 antiepileptics) came to 2. Moreover, in data set [3], the “Dose range: PK note” value was “(non-linear PK)”. Further, the Concentration range entry in data set [1] is listed as “(50-100 mg/L)”. Further, the Therapeutic window in data set [1] (Table 7 antiepileptics) was 50 to 100 mg/L.
As for `[H]/N=C(/N)c1ccc(NCc2nc3cc(C(=O)N(CCC(=O)O)c4ccccn4)ccc3n2C)cc1` [Dabigatran], the Therapeutic index in data set [2] (Table 5 anticoagulants) is on record as 1.7. Moreover, the Concentration/biomarker range entry in data set [1] (Table 2 anticoagulants) was “(60-200 mg/L or”.
For the compound `CO[C@H]1C[C@@H]2CC[C@@H](C)[C@@](O)(O2)C(=O)C(=O)N2CCCC[C@H]2C(=O)O[C@H]([C@H](C)C[C@@H]2CC[C@@H](O)[C@H](OC)C2)CC(=O)[C@H](C)/C=C(\C)[C@@H](O)[C@@H](OC)C(=O)[C@H](C)C[C@H](C)/C=C/C=C/C=C/1C` [Sirolimus], the “Small change in concentration may lead to failure/serious AE (concentration range)” value in data set [1] (Table 4 immunosuppressants) was “(12-20 ng/mL)”.
Regarding `COc1c(C)c2c(c(O)c1C/C=C(\C)CCC(=O)O)C(=O)OC2` [Mycophenolate], in data set [1] (Table 4 immunosuppressants, not in label), the “Small change in concentration may lead to failure/serious AE (exposure range)” value was “(30-60 mg*h/L”.
In the case of `O=C1CN=C(c2ccccc2Cl)c2cc([N+](=O)[O-])ccc2N1` [Clonazepam], the Concentration range result in data set [1] is “(0.02-0.07 mg/L)”.
For the compound `NCC1(CC(=O)O)CCCCC1` [Gabapentin], the Concentration range result in data set [1] was “(2-20 mg/L)”.
Take `C=CC[C@@H]1/C=C(\C)C[C@H](C)C[C@H](OC)[C@H]2O[C@@](O)(C(=O)C(=O)N3CCCC[C@H]3C(=O)O[C@H](/C(C)=C/[C@@H]3CC[C@@H](O)[C@H](OC)C3)[C@H](C)[C@@H](O)CC1=O)[C@H](C)C[C@@H]2OC` [Tacrolimus]: the “Small change in concentration may lead to failure/serious AE (concentration range)” value in data set [1] (Table 4 immunosuppressants) was “(5-15 ng/mL)”.
For the compound `C=CC(N)CCC(=O)O` (stereo not shown) [Vigabatrin], the Concentration range entry in data set [1] was “(0.8-36 mg/L)”.
On to `CC[C@@H](C(N)=O)N1CCCC1=O` [Levetiracetam], for which the Concentration range entry in data set [1] is “(12-46 mg/L)”.
For `CN1C(=O)CC(=O)N(c2ccccc2)c2cc(Cl)ccc21` [Clobazam], the Concentration range result in data set [1] is “(0.03-0.3 mg/L)”.
Turning to `NC(=O)N1c2ccccc2C=Cc2ccccc21` [Carbamazepine], in data set [2] (Table 7 antiepileptics), the Therapeutic index is 3. Besides, the Therapeutic window in data set [1] (Table 7 antiepileptics) was 4 to 12 mg/L.
On to `CC(=O)CC(c1ccccc1)c1c(O)c2ccccc2oc1=O` (stereo not shown) [Warfarin], for which the Therapeutic index in data set [2] (Table 5 anticoagulants) amounted to 1.5.
For `C=C[C@H]1C[N@@]2CC[C@H]1C[C@@H]2[C@@H](O)c1ccnc2ccc(OC)cc12` [Quinidine], in data set [2] (Table 6 antiarrhythmics), the Therapeutic index is given as 2.5. Moreover, the Concentration/biomarker range result in data set [1] (Table 3 antiarrhythmics) is “(2-5 mg/L)”. Moreover, the Therapeutic window in data set [1] (Table 6 antiarrhythmics) is 2 to 5 mg/L.
Turning to `CCC1(c2ccccc2)C(=O)NCNC1=O` [Primidone], in data set [1], the Concentration range entry was “(5-10 mg/L)”.
Take `CC1(C)O[C@@H]2[C@@H](CO[C@@]3(COS(N)(=O)=O)OC(C)(C)O[C@@H]23)O1` [Topiramate]: the Therapeutic index in data set [2] (Table 7 antiepileptics) is recorded as 4. The Concentration range result in data set [1] was “(5-20 mg/L)”. For the same compound, the Therapeutic window in data set [1] (Table 7 antiepileptics) was 5 to 20 mg/L.
As to `C[C@H]1O[C@@H](O[C@H]2[C@@H](O)C[C@H](O[C@H]3[C@@H](O)C[C@H](O[C@H]4CC[C@@]5(C)[C@H](CC[C@@H]6[C@@H]5C[C@@H](O)[C@]5(C)[C@@H](C7=CC(=O)OC7)CC[C@]65O)C4)O[C@@H]3C)O[C@@H]2C)C[C@H](O)[C@@H]1O` [Digoxin], the Concentration/biomarker range result in data set [1] (Table 3 antiarrhythmics, AF) is reported as “(0.8-2: AF”; in data set [1] (Table 3 antiarrhythmics, Cl), 0.5-1: Cl).
For the compound `Nc1nnc(-c2cccc(Cl)c2Cl)c(N)n1` [Lamotrigine], in data set [2] (Table 7 antiepileptics), the Therapeutic index was 4.7. Besides, the Concentration range result in data set [1] is given as “(3-14 mg/L)”. Also, the Therapeutic window in data set [1] (Table 7 antiepileptics) is 3 to 14 mg/L.
Take `NC(=O)OCC(COC(N)=O)c1ccccc1` [Felbamate]: the Therapeutic index in data set [2] (Table 7 antiepileptics) is 2. Also, in data set [1], the Concentration range entry was “(30-60 mg/L)*”. Also, the Therapeutic window in data set [1] (Table 7 antiepileptics) was 30 to 60 mg/L.
On to `CO[C@H]1C[C@@H]2CC[C@@H](C)[C@@](O)(O2)C(=O)C(=O)N2CCCC[C@H]2C(=O)O[C@H]([C@H](C)C[C@@H]2CC[C@@H](OCCO)[C@H](OC)C2)CC(=O)[C@H](C)/C=C(\C)[C@@H](O)[C@@H](OC)C(=O)[C@H](C)C[C@H](C)/C=C/C=C/C=C/1C` [Everolimus], for which the “Small change in concentration may lead to failure/serious AE (concentration range)” value in data set [1] (Table 4 immunosuppressants) is recorded as “(3-8 ng/mL)”.
